These results are taken from patent EP0573218B1, “4-Carboxyimidazoles as angiotensin II antagonists and their thrapeutic use” (SANKYO COMPANY LIMITED, priority 1992, dated 1993).

For the assay, the system named is All receptor. Nature of the assay: Inhibition of pressor response to intravenous angiotensin II in anaesthetised rats (AII receptor blocking activity). In kind it is in vivo. As to conditions: i.v.; dose inhibiting by fifty percent the pressor response to 50 ng/kg i.v. angiotensin II; angiotensin II injected two minutes after test compound; male Wister-Imamichi rats. As for the experimental part:
Evaluation of All receptor blocking activity by Inhibition of pressor response to angiotensin II
The biological activity of each compound was assessed by determining the dose required to inhibit the pressor response to intravenous angiotensin II by fifty percent (ID50) in rats. Male Wister-Imamichi rats, each weighing 300 to 400 g, were anaesthesized by intraperitoneal injection of 100 mg/Kg of sodium thiobutabarbital [Inactin (trade name)] and two cannulae were inserted: one into the femoral artery for measuring blood pressure and the other into the femoral vein for injecting drugs. Fifty ng/kg of angiotension II were intravenously administered at intervals of about 10 minutes, and the elevation of blood pressure (normally about 50 mmHg) was observed. After constant pressor responses to angiotensin II were obtained, a test compound was intravenously administered. Two minutes later, angiotension II was again injected, and the inhibitory effect of the test compound was estimated. The percent inhibitions of the pressor response to angiotensin II by progressive increase of the test compound was used to calculate the value of ID50. Angiotensin II was used in this test dissolved in 0.5 % bovine serum albumin (BSA) and the test compounds were dissolved in 100% dimethyl sulphoxide (DMSO).
In turn, `COCc1nc(C(C)(C)O)c(C(=O)O)n1Cc1ccc(-c2ccccc2-c2nnn[nH]2)cc1` [Example 2, 4-(1-Hydroxy-1-methylethyl)-2-methoxymethyl-1-{4-[2-(tetrazol-5-yl)phenyl]phenyl}methylimidazole-5-carboxylic acid] showed an ID50 of 0.0066 mg/kg. Under `CCOCc1nc(C(C)(C)O)c(C(=O)O)n1Cc1ccc(-c2ccccc2-c2nnn[nH]2)cc1` [Example 6, 2-Ethoxymethyl-4-(1-hydroxy-1-methylethyl)-1-{4-[2-(tetrazol-5-yl)phenyl]phenyl}methylimidazole-5-carboxylic acid] stands 0.0059 mg/kg.

For `CCCOCc1nc(C(C)(C)O)c(C(=O)O)n1Cc1ccc(-c2ccccc2-c2nnn[nH]2)cc1` [Example 10, 4-(1-Hydroxy-1-methylethyl)-2-propoxymethyl-1-{4-[2-(tetrazol-5-yl)phenyl]phenyl}methylimidazole-5-carboxylic acid], the ID50 is 0.016 mg/kg. For `COC(C)c1nc(C(C)(C)O)c(C(=O)O)n1Cc1ccc(-c2ccccc2-c2nnn[nH]2)cc1` (stereo not shown) [Example 14, 4-(1-Hydroxy-1-methylethyl)-2-(1-methoxyethyl)-1-{4-[2-(tetrazol-5-yl)phenyl]phenyl}methyl-imidazole-5-carboxylic acid] the value was 0.074 mg/kg; for `CSCc1nc(C(C)(C)O)c(C(=O)O)n1Cc1ccc(-c2ccccc2-c2nnn[nH]2)cc1` [Example 22, 4-(1-Hydroxy-1-methylethyl)-2-methylthiomethyl-1-{4-[2-(tetrazol-5-yl)phenyl]phenyl}methyl-imidazole-5-carboxylic acid], 0.025 mg/kg; for `CSc1nc(C(C)(C)O)c(C(=O)O)n1Cc1ccc(-c2ccccc2-c2nnn[nH]2)cc1` [Example 25, 4-(1-Hydroxy-1-methylethyl)-2-methylthio-1-{4-[2-(tetrazol-5-yl)phenyl]phenyl}methyl-imidazole-5-carboxylic acid], 0.026 mg/kg. For `CCSc1nc(C(C)(C)O)c(C(=O)O)n1Cc1ccc(-c2ccccc2-c2nnn[nH]2)cc1` [Example 27, 2-Ethylthio-4-(1-hydroxy-1-methylethyl)-1-{4-[2-(tetrazol-5-yl)phenyl]phenyl}methyl-imidazole-5-carboxylic acid] the value was 0.019 mg/kg.
